The results in this text go back to publication PMC9501899 (Journal of the American Chemical Society, 2022).

The target in the test is T1, human LRRK2 (Homo sapiens, UniProt Q5S007).
T1 construct: endogenous in cells; host or cells: human PBMCs from healthy donors
As to the kind of experiment: LRRK2 degradation in peripheral blood mononuclear cells (PBMCs). It is filed as cell-based. The source says:
The relative LRRK2 protein and pRab10 levels were obtained by quantifying the ratios of total LRRK2/GAPDH or Rab10-pThr73/total Rab10, respectively, and the ratios were normalized to the DMSO-treated samples. The relative LRRK2 and pRab10 protein levels were plotted against the compound concentration and fitted against “nonlinear regression, one site-fit log IC50” in GraphPad to obtain the DC50 and EC50 values. Data points are presented as mean ± standard error of the mean (SEM) from three biological independent replicates. […] The relative LRRK2 protein and pRab10 levels were obtained by quantifying the ratios of total LRRK2/ GAPDH or Rab10-pThr73/total Rab10, respectively, and the ratios were normalized to the DMSO-treated samples. The relative LRRK2 and pRab10 protein levels were plotted against the treatment time and were fitted against “nonlinear regression, one-phase decay” in GraphPad to obtain the half-life (T1/2) values. Data points are presented as mean ± SEM from three biological independent replicates. […] The relative LRRK2 levels were obtained by quantifying the ratios of total LRRK2/tubulin and normalized to the DMSO-treated samples. The relative LRRK2 levels were plotted against the compound concentration and fitted against “nonlinear regression, one site-fit log IC50” in GraphPad to obtain the DC50 values.
PBMC cells were separated from human blood from healthy volunteer donors following the existing protocol[82] and pelleted by centrifugation at 1000g for 2 min. The supernatant was discarded, and the PBMC pellet was resuspended in PBS containing 2% FBS for washing. The suspension was centrifuged at 1000g for 2 min again, and the PBMC pellet was resuspended in Roswell Park Memorial Institute (RPMI)-1640 (Gibco) media supplemented with 10% FBS. The cells were then seeded into six-well plates and treated with testing compounds at indicated concentrations and time periods. After treatment, the cells were collected into a 2 mL Eppendorf tube and centrifuged at 500g for 2 min to pellet the cells, the supernatant was discarded, and the pellet was resuspended in 1 mL PBS and centrifuged at 500g for 2 min again. The PBMC pellet was lysed with 60 μL of lysis buffer containing 50 mM tris–HCl, pH 7.5, 1% (v/v) Triton X-100, 1 mM ethylene glycol-bis(β-aminoethyl ether)-N,N,N′,N′-tetraacetic acid (EGTA), 1 mM sodium orthovanadate, 50 mM NaF, 0.1% (v/v) 2-mercaptoethanol, 10 mM 2-glycerophosphate, 5 mM sodium pyrophosphate, 0.1 μg/mL microcystin-LR (Enzo Life Sciences), 270 mM sucrose, and 0.5 mM diisopropyl fluorophosphate (DIFP) (Sigma-Aldrich, Cat# D0879) in addition to a complete EDTA-free protease inhibitor cocktail (Sigma-Aldrich Cat # 11836170001). DIFP is highly toxic and must be prepared in a fume hood to a stock solution of 0.5 M in isopropanol. The lysed cells were then centrifuged at 1500g for 15 min at 0 °C. The supernatants were collected for analysis by quantitative immunoblotting. For long-term storage, the supernatant was flash-frozen and stored at −80 °C. Protein concentrations of cell lysates were determined using the Pierce BCA Protein Assay Kit (Thermo Fisher).
Cell lysates containing a quarter of a volume of 4× NuPAGE LDS sample buffer (NP0007) supplemented with 5% β-mercaptoethanol were heated at 95 °C for 5 min. Samples (15–20 μg) were loaded onto precast 4–12% bis–tris midi 20W or 26W gels (Thermo Fisher Scientific, Cat# WG1402BOX or WG1403BOX) and resolved at 130 V for 2 h with a NuPAGE MOPS SDS running buffer (Thermo Fisher Scientific Cat# NP0001-02). Proteins were electrophoretically transferred onto a 0.45 μm nitrocellulose membrane (GE Healthcare, Amersham Protran Supported […] NC) at 90 V for 90 min on ice in a transfer buffer (48 mM tris base and 39 mM glycine supplemented with 20% methanol).

By DC50 is commonly meant the concentration at which degradation of the target reaches its halfway point.

Like-named read-outs stand apart in the source and are kept apart here.

T1 sequence (Q5S007 whole entry): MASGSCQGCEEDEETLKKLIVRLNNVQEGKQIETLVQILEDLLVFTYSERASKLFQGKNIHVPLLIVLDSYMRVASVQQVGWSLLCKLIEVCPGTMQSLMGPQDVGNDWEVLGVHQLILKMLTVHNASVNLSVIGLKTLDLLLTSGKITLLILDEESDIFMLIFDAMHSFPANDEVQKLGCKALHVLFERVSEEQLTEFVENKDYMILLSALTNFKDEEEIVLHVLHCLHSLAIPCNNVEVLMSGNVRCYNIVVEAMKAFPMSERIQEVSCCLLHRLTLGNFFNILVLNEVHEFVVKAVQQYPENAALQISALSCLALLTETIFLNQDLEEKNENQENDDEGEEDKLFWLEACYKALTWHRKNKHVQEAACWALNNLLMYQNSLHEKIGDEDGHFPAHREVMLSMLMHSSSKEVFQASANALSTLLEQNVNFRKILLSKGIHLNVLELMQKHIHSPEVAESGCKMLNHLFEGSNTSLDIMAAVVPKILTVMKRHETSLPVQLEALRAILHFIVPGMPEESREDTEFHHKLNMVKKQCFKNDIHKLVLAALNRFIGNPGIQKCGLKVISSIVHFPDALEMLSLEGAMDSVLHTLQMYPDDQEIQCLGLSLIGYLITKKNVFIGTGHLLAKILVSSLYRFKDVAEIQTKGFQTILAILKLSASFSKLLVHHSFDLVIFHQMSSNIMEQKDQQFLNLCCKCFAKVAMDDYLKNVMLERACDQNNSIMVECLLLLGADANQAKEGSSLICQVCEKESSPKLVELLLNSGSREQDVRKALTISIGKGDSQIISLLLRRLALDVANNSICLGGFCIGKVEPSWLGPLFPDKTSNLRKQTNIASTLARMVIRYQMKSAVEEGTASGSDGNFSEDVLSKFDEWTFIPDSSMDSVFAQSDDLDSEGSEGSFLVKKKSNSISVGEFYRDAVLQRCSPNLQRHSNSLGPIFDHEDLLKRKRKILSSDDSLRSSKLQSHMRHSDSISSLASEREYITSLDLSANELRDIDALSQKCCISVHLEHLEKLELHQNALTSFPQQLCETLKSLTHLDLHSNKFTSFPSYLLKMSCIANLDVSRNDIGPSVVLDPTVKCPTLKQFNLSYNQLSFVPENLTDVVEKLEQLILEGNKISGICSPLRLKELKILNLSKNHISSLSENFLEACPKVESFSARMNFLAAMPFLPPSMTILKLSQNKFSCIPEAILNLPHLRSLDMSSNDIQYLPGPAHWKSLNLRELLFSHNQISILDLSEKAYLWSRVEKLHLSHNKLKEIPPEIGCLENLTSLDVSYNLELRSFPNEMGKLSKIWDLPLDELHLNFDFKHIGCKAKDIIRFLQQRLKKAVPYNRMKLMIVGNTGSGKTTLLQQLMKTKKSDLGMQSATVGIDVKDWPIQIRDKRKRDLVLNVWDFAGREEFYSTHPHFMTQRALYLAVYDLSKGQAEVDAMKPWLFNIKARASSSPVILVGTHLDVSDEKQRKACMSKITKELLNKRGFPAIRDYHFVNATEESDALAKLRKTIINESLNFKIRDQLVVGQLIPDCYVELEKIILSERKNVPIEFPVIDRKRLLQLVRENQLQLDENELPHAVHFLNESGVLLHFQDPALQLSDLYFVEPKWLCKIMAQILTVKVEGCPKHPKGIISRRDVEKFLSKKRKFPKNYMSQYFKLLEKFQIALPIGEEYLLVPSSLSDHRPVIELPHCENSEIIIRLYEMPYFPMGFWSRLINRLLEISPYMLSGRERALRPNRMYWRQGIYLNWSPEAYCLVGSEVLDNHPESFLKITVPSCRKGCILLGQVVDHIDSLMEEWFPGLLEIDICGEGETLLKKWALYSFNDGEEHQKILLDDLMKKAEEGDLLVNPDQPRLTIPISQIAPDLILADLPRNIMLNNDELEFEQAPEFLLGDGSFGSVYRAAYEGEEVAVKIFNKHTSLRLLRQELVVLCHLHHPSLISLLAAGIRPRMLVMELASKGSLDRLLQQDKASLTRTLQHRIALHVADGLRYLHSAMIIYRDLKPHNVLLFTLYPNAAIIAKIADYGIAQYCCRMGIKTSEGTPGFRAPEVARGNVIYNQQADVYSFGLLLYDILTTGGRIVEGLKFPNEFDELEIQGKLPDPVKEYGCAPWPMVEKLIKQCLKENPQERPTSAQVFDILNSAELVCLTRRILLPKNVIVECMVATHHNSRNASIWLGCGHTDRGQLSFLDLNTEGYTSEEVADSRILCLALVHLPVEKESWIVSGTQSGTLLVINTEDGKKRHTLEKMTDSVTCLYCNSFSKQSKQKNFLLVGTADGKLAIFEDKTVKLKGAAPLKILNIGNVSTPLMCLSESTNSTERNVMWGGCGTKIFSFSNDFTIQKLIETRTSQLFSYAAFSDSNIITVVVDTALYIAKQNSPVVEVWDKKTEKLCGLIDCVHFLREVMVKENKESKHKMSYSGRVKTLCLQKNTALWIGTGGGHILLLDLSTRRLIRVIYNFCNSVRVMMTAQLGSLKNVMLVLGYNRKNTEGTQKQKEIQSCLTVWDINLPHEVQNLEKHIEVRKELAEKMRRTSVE

For `CNc1nc(Nc2ccc(C(=O)N3CCN(C[C@H]4CC[C@H](CSC(C)(C)[C@H](NC(=O)C5(F)CC5)C(=O)N5C[C@H](O)CC5C(=O)NCc5ccc(-c6scnc6C)cc5)CC4)CC3)cc2OC)ncc1Cl` (stereo partly drawn) [XL01126, (2S,4R)-1-((R)-3-((((1R,4R)-4-((4-(4-((5-Chloro-4-(methylamino)pyrimidin-2-yl)amino)-3-methoxybenzoyl)piperazin-1-yl)methyl)cyclohexyl)methyl)thio)-2-(1-fluorocyclopropane-1-carboxamido)-3-methylbutanoyl)-4-hydroxy-N-(4-(4-methylthiazol-5-yl)benzyl)pyrrolidine-2-carboxamide], the DC50 (4 h, read-out: DC50,4h (LRRK2)) is 72 nM and the DC50 (24 h, read-out: DC50,24h (LRRK2)) was determined as 17 nM.
With `CNc1nc(Nc2ccc(C(=O)N3CCN(C[C@H]4CC[C@H](CSC(C)(C)[C@H](NC(=O)C5(F)CC5)C(=O)N5C[C@@H](O)C[C@H]5C(=O)NCc5ccc(-c6scnc6C)cc5)CC4)CC3)cc2OC)ncc1Cl` [cis-XL01126, (2S,4S)-1-((R)-3-((((1R,4R)-4-((4-(4-((5-Chloro-4-(methylamino)pyrimidin-2-yl)amino)-3-methoxybenzoyl)piperazin-1-yl)methyl)cyclohexyl)methyl)thio)-2-(1-fluorocyclopropane-1-carboxamido)-3-methylbutanoyl)-4-hydroxy-N-(4-(4-methylthiazol-5-yl)benzyl)pyrrolidine-2-carboxamide], where the note is “4 h”, the “DC50,4h (LRRK2)” value is “NDO” and the “Dmax (LRRK2)” value was “NDO”. Also, for the setting “24 h”, the “DC50,24h (LRRK2)” value is given as “NDO” and the “Dmax (LRRK2)” value was “NDO”.
